Patent US11849727B2, “Synergistic formulations for control and repellency of biting arthropods” (Bedoukian Research, Inc., priority 2013, dated 2023)

System: Aedes aegypti
Assay: Arm in Cage testing on human subjects (modified WHO - Nigel Hill protocol), dose response
Format: in vivo
Settings: individual component, LDP Line dose response curve
Description: A Modified WHO-[…] protocol was used for Dose Response curve generation. Three concurrent repetitions were conducted with 4 subjects (2 male, 2 female). Approximately 60 non blood-fed, female Aedes aegypti mosquitoes were placed in a 12''×12''×12'' (28316.85 cm^3) plexi and screen cage. […] Arms were inserted into the first cage for 30 seconds, with number of landings (with intent to bite) recorded at the end of the time interval. The same procedure was used for the 2nd and 3rd cage in succession. Control arm was inserted first, followed by the opposite arm treated with ethanol only (as a treatment control). The 'treatment arm' is then treated with dose 1 and inserted, then dose 2, dose 3, and so on. After complete protection was achieved, control arm was reinserted to verify continued activity. Percent repellency was calculated by utilizing the formula [{(C-T)/C}*100]. Where C=the number of mosquitoes landing with intent to bite on the ethanol only treated arm, and T=the number of mosquitoes landing with intent to bite on the 'repellent' treated arm. LDP Line® software (Bakr, E 2007) was used to determine ED50 (effective dose to repel 50%) and compare materials. […] Significance was determined by the use of 95% confidence intervals. […]

## CCN(CC)C(=O)c1cccc(C)c1 [DEET, N,N-Diethyl-m-toluamide]
  percent dose required to generate an ED25 (25% repellency): 0.035%
